Measured values: ChEMBL document CHEMBL1138705, “Tetrahydroisoquinoline derivatives as melatonin MT2 receptor antagonists” (Bioorg Med Chem Lett, 2004)

Tests used:
[1] = target: T1, Melatonin receptor type 1B (Homo sapiens, UniProt P49286); assay: Inhibitory concentration against Melatonin receptor type 1B
T1 sequence (P49286 whole entry): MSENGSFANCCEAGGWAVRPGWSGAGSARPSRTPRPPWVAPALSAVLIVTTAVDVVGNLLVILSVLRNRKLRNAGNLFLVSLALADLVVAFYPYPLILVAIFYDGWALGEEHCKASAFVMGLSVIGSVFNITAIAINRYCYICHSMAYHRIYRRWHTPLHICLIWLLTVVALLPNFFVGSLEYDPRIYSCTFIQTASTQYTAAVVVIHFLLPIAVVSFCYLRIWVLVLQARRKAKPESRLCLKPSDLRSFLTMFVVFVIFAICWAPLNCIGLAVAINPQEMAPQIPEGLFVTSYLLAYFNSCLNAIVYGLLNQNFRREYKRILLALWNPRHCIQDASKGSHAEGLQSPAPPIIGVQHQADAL

[2] = target: Melatonin receptor type 1A (Homo sapiens, UniProt P48039); assay: Inhibitory concentration against Melatonin receptor type 1A
Melatonin receptor type 1A, sequence (P48039 whole entry): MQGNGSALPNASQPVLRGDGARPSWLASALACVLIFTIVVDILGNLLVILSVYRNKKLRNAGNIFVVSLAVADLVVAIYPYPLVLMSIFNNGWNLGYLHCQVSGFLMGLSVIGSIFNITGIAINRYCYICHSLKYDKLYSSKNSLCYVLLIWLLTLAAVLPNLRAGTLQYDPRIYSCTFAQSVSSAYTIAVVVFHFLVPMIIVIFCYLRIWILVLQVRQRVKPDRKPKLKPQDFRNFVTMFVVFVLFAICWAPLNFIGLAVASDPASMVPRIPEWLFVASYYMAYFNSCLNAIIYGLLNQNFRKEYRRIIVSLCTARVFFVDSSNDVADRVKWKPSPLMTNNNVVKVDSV

| SMILES | IC50 [1] | IC50 [2] |
| --- | --- | --- |
| COc1cc2c(cc1OC)C(CC(c1ccccc1)c1ccccc1)N(C(=O)C1CCC1)CC2 (stereo in doubt; 1j) | 310 nM | – |
| COc1cc2c(cc1Br)CCN(C(C)=O)C2CC(c1ccccc1)c1ccccc1 (stereo unspecified) | 24 nM | 230 nM |
| COc1cc2c(cc1OC)C(CC(c1ccccc1)c1ccccc1)N(C(=O)c1ccc(C(F)(F)F)cc1)CC2 (stereo unspecified) | 810 nM | – |
| CC(=O)N1CCc2c(ccc3c2CCO3)C1CC(c1ccccc1)c1ccccc1 (stereo unspecified) | > 1000 nM | > 1000 nM |
| COc1cc2c(cc1OC)C(CC(c1ccccc1)c1ccccc1)N(C(C)=O)CC2 (stereo unspecified) | 9.7 nM | > 1000 nM |
| CC(=O)N1CCc2ccccc2C1CC(c1ccccc1)c1ccccc1 (stereo unspecified) | > 1000 nM | > 1000 nM |
| COC(=O)N1CCc2cc(OC)c(OC)cc2C1CC(c1ccccc1)c1ccccc1 (stereo unspecified) | 22 nM | 673 nM |
| COc1cc2c(cc1OC)C(CC(c1ccccc1)c1ccccc1)N(C(=O)C(F)(F)F)CC2 (stereo unspecified) | 100 nM | > 1000 nM |
| COc1cc2c(cc1OC)C(CCc1ccccc1)N(C(=O)c1ccc(C(F)(F)F)cc1)CC2 (stereo unspecified) | 1000 nM | – |
| COc1cc2c(cc1OC)C(CCc1ccccc1)N(C(C)=O)CC2 (stereo unspecified) | 76 nM | > 1000 nM |
| COc1cc2c(cc1OC)C(CCc1ccccc1)N(C(=O)C1CCC1)CC2 (stereo unspecified) | 24 nM | – |
| COc1cc2c(cc1OC)C(CC(c1ccccc1)c1ccccc1)N(C(=O)C1CCC1)CC2 (stereo in doubt; 1m) | 240 nM | – |
| COc1ccc2c(c1)CCN(C(C)=O)C2CC(c1ccccc1)c1ccccc1 (stereo unspecified) | 270 nM | > 1000 nM |
| COc1cc2c(cc1OC)C(CC(c1ccccc1)c1ccccc1)N(C(N)=O)CC2 (stereo unspecified) | 30 nM | > 1000 nM |
| CCCC(=O)N1CCc2cc(OC)c(OC)cc2C1CC(c1ccccc1)c1ccccc1 (stereo unspecified) | 79 nM | > 1000 nM |
| CCCCCC(=O)N1CCc2cc(OC)c(OC)cc2C1CC(c1ccccc1)c1ccccc1 (stereo unspecified) | 280 nM | – |
| COc1cc2c(cc1OC)C(CCc1ccccc1)N(C(N)=O)CC2 (stereo unspecified) | 160 nM | > 1000 nM |
| COc1cc2c(cc1OC)C(CC(c1ccccc1)c1ccccc1)N(C(=O)C1CCCCC1)CC2 (stereo unspecified) | 370 nM | – |
| COc1cccc2c1CCN(C(C)=O)C2CC(c1ccccc1)c1ccccc1 (stereo unspecified) | > 1000 nM | > 1000 nM |
| CCCCCCC(=O)N1CCc2cc(OC)c(OC)cc2C1CC(c1ccccc1)c1ccccc1 (stereo unspecified) | 400 nM | – |
| COc1cc2c(cc1OC)C(CC(c1ccccc1)c1ccccc1)N(C=O)CC2 (stereo unspecified) | 9.9 nM | 621 nM |
| COc1ccc2c(c1)C(CC(c1ccccc1)c1ccccc1)N(C(C)=O)CC2 (stereo unspecified) | 5.5 nM | 512 nM |
| CC(=O)N1CCc2cc(F)ccc2C1CC(c1ccccc1)c1ccccc1 (stereo unspecified) | 140 nM | > 1000 nM |
| COc1ccc2c(c1OC)CCN(C(C)=O)C2CC(c1ccccc1)c1ccccc1 (stereo unspecified) | > 1000 nM | > 1000 nM |
| COc1cc2c(c(OC)c1)C(CC(c1ccccc1)c1ccccc1)N(C(C)=O)CC2 (stereo unspecified) | 45 nM | > 1000 nM |
| CNC(=O)N1CCc2cc(OC)c(OC)cc2C1CC(c1ccccc1)c1ccccc1 (stereo unspecified) | 60 nM | > 1000 nM |
| COc1cc2c(cc1OC)C(CCc1ccccc1)N(C(=O)C1CCCCC1)CC2 (stereo unspecified) | 220 nM | – |
| COc1cc2c(cc1OC)C(CCc1ccccc1)N(C=O)CC2 (stereo unspecified) | 83 nM | > 1000 nM |
| CCC(=O)N1CCc2cc(OC)c(OC)cc2C1CC(c1ccccc1)c1ccccc1 (stereo unspecified) | 62 nM | > 1000 nM |
| COc1cc2c(cc1OC)C(CC(c1ccccc1)c1ccccc1)N(C(=O)c1ccccc1)CC2 (stereo unspecified) | 120 nM | > 1000 nM |
